From patent US9173876B2, “Preparation and therapeutic applications of (2S,3R)-N-2-((3-pyridinyl)methyl)-1-azabicyclo[2.2.2]oct-3-yl)-3,5-difluorobenzamide” (Targacept, Inc., priority 2009, dated 2015)

Tests used:
[1] = target: α7 nicotinic ACh receptors (Homo sapiens, UniProt P36544); experiment: Electrophysiology, dose-response at α7 nicotinic ACh receptors; format: cell-based
[2] = tested on: STZ rat model of diabetic neuropathy; experiment: Streptozotocin (STZ)-induced diabetic neuropathy, Von Frey allodynia; format: in vivo; conditions: for Tactile allodynia (Von Frey): 30 min after administration
Protocol: Diabetes was induced by a 0.5 ml injection of streptozotocin (60 mg/kg) dissolved in citrate buffer (pH=6) into the tail vein of each rat. The development of diabetes was confirmed by measuring the blood glucose levels (BGL) of all animals on study day 3 (BGL>300 mg/dL). […] These animals were tested again for their BGL at study day 23.
(2S,3R)—N-2-((3-pyridinyl)methyl)-1-azabicyclo[2.2.2]oct-3-yl)-3,5-difluorobenzamide (0.1, 1 or 10 mg/kg p.o.) was administered as a solution of the hydrochloride salt in water once daily starting on study day 14 or study day 16 and continuing through study day 21 or 23, respectively. The control article gabapentin (in 0.9% saline, 150 mg/kg i.p.) was only administered on allodynia test days. Test item, vehicle or control article administration was based on evaluation of allodynia on study day 14. If allodynia was not present on study day 14, the animal was evaluated again at study day 16. Pain response was measured either on study days 14 and 21 or 16 and 23, 30 minutes after Test Item administration.
For the allodynia assessments, Von Frey filaments were used according to the methods of Chaplan and colleagues (1994). Briefly, the rats were placed in an enclosure and positioned on a metal mesh surface, but allowed to move freely. The rats' cabins were covered with red cellophane to diminish environmental distributions. The test began after cessation of exploratory behavior.
When the tip of a Von Frey fiber of given length and diameter was pressed against the skin at right angles, the force of application increases as long as the researcher continued to advance the probe until the fiber bent. After the fiber bent, the probe was advanced, causing the fiber to bend more, but without additional force being applied. The animal would indicate sensation by pulling back its paw. In the absence of a paw withdrawal response to the initially selected filament, a stronger stimulus was presented: in the event of paw withdrawal, the next weaker stimulus was chosen. In this fashion, the resulting pattern of positive and negative responses was used to determine the paw withdrawal threshold.
The set of Von Frey monofilaments provide an approximate logarithmic scale of actual force and a linear scale of perceived intensity. Below is a table showing the force (g) and its corresponding size of monofilaments.
All normally distributed data are presented as means±SEM, as well as the animals' individual values followed by a student T-test (Software: Microsoft® Excel). A p value<0.05 is considered to represent a significant difference. Due to the non-normal distribution of the allodynia data, descriptions of those data are provided as both mean (+SEM) and median values in order to represent their imprecise nature and skewed distribution.

[3] = tested on: db/db mouse; experiment: Murine model of type 2 diabetes mellitus (db/db mouse); format: in vivo; conditions: 1.0 mg/kg oral once daily
Excerpt: The db/db mouse, a well established model of type 2 diabetes mellitus, is a leptin-deficient mutant that expresses an obese phenotype and also commonly expresses metabolic symptoms including hyperglycemia, hyperlipidemia and hyperinsulinemia (Halaas et al., 1995 and Lee et al., 1996). This experimental animal model of diabetes was employed in a study designed to determine the effects of (2S,3R)—N-2-((3-pyridinyl)methyl)-1-azabicyclo[2.2.2]oct-3-yl)-3,5-difluorobenzamide on body mass and several additional metabolic parameters.
In this study, (2S,3R)—N-2-((3-pyridinyl)methyl)-1-azabicyclo[2.2.2]oct-3-yl)-3,5-difluorobenzamide was repeatedly administered orally (via gavage) at 1.0 mg/kg once daily starting from the age of approximately 3 weeks and continuing throughout the 7-week study. Nondiabetic heterozygote littermate mice (db/+; designated “Db”) were used as controls. Body weight and food intake were determined twice weekly. The α7 antagonist methyllycaconitine (MLA) was also given concurrently via gavage at 3 mg/kg daily to selected cohorts of db/db (designated “db”) or db/+mice. At the end of the 7-week dosing regimen, total growth rates (overall body weight gain) and average daily food intake were calculated. In addition, glucose levels were assessed in mice fasted overnight. Furthermore, blood sample analytes from mice fasted overnight were collected for measurements of tumor necrosis factor-a (TNF-α), triglycerides and glycosylated hemoglobin (HbA1c). All data are expressed as mean±SEM. For each parameter investigated, differences among all groups were compared by one-way ANOVA with post-hoc Neuman-Keuls multiple comparison test.

[4] = tested on: ovalbumin-sensitized mice; experiment: Airway hyperresponsiveness, Penh response to methacholine; format: in vivo, mouse; conditions: for Methacholine-induced increase in Penh values: FIG. 21
Protocol: (§1) Using the method of Hamelmann et al, (2S,3R)—N-2-((3-pyridinyl)methyl)-1-azabicyclo[2.2.2]oct-3-yl)-3,5-difluorobenzamide was evaluated for possible inhibition of airway hyper-responsiveness in mice. Briefly, ovalbumin (OVA)-sensitized animals, 12 animals per group, were challenged by nasal inhalation with aerosolized 5% OVA for 25 min on days 21, 23, and 25. The mice were treated with vehicle or (2S,3R)—N-2-((3-pyridinyl)methyl)-1-azabicyclo[2.2.2]oct-3-yl)-3,5-difluorobenzamide subcutaneously (s.c.) twice daily from day 21 to day 26 or once daily intratracheally (i.t.), preceding ovalbumin aerosol challenge by 30 min on days 21, 23 and 25 as well as methacholine challenge or bronchoalveolar lavage fluids (BALF) harvest on day 26. Dexamethasone, the reference standard, was administered at 3 mg/kg orally (p.o.) once daily 60 min before OVA challenge on day 21, 23 and 25 and 60 min before methacholine provocation or BALF harvest on day 26. Noninvasive measurements of airway responsiveness were performed by using whole body plethysmography, in which increases in enhanced pause (Penh) serve as an index of airway obstruction. Responses to inhaled methacholine were measured and calculated as percentage of respective baseline values. Unpaired Student's t-test was used for comparison between the vehicle control and the sham group; one-way ANOVA and Dunnett's post-hoc analyses were applied for comparison between the vehicle control and treated groups. Statistical significance is considered at P<0.05.

[5] = tested on: ovalbumin-sensitized mice; experiment: White blood cell and differential cell counts in BALF; format: in vivo, mouse
Protocol: as §1

α7 nicotinic ACh receptors, sequence (P36544 23-502): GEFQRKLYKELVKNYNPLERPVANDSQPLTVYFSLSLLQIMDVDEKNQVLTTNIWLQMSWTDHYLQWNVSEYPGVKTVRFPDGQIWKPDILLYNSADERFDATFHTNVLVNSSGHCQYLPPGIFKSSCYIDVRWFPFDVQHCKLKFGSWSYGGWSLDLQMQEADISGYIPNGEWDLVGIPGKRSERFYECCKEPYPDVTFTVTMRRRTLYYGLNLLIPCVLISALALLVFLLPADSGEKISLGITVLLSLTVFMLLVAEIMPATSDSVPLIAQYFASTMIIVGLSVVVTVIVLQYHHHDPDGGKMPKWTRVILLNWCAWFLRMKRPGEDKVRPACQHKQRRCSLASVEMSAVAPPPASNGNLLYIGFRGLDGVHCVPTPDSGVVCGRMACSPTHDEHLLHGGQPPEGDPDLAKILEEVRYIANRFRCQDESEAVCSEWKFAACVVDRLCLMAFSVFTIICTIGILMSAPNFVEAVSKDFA

O=C(N[C@@H]1C2CCN(CC2)[C@H]1Cc1cccnc1)c1cc(F)cc(F)c1 [Compound A]
Functional mode at the α7 NNR [1]: partial agonist | Diabetic neuropathy pain, Von Frey assessment ([2]; 1 mg/kg and 10 mg/kg, compared to vehicle, FIG. 14): effective in reducing diabetic neuropathy pain | Tactile allodynia (Von Frey) ([2]; 1 mg/kg p.o., study days 14/16, vs pretreatment p<0.01, vs vehicle p<0.05): inhibited allodynia | Tactile allodynia (Von Frey) ([2]; 1 mg/kg p.o., study days 21/23, vs pretreatment p=0.012): inhibited allodynia | Tactile allodynia (Von Frey) ([2]; 10 mg/kg p.o., study days 14/16, vs pretreatment p=0.012): inhibited allodynia | Tactile allodynia (Von Frey) ([2]; 10 mg/kg p.o., study days 21/23, vs vehicle p<0.05): inhibited allodynia | All parameters measured (body weight gain, food intake, glucose, HbA1c, TNF-α, triglycerides) ([3]; 7 weeks, obese db/db mice vs vehicle): significant decrease in all parameters measured | Average daily food consumption ([3]; 7 weeks, obese mice vs obese controls, FIG. 16): significantly lower | Triglyceride levels ([3]; 7 weeks, obese mice vs vehicle, FIG. 20): significantly lower | Total body weight gain ([3]; 7 weeks, obese mice, FIG. 15): significantly lower | Fasting plasma glucose levels ([3]; 7 weeks, obese mice, FIG. 17): significantly inhibited | Glycosylated HbA1c levels ([3]; 7 weeks, obese mice, FIG. 18): significantly inhibited | Pro-inflammatory cytokine TNF alpha ([3]; 7 weeks, obese mice, FIG. 19): significantly reduced | Food consumption ([3]; lean mice (Db), FIG. 16): unaffected | Methacholine-induced increase in Penh values ([4]; 10 mg/kg IT qd): significant inhibition | Methacholine-induced increase in Penh values ([4]; 0.1, 1, and 10 mg/kg bid s.c.): significant inhibition | Protection against airway hyper-responsiveness (summary) ([4]; 0.1, 1 and 10 mg/kg bid s.c. and 10 mg/kg i.t.): significant protection against airway hyper-responsiveness | Monocytes in BALF ([5]; 10 mg/kg SC): reduced | Total WBC and eosinophils in BALF ([5]; 0.1 and 1 mg/kg SC): significantly reduced | Lymphocytes in BALF ([5]; 0.1 and 1 mg/kg SC and 10 mg/kg IT): reduced | Eosinophils and white blood cells in BALF (summary) ([5]; multiple administrations, lacks a consistent dose-response relationship): significant reduction in eosinophils and white blood cells in BALF
